# Experimental data reported in patent US7202280B2, “Methods for the treatment and prevention of pancreatitis and for induction of liver regeneration” (priority 2002, dated 2007).
# Where “and” joins values, the source holds several entries; their conditions need not be identical. Identical values can stand only once.
# Legend:
# [1] = test system: SSAT; test: SSAT activity in SSAT transgenic rats after polyamine analogues without or with MDL72527; type: in vivo, rat
# Protocol: FIGS. 9A–9B. Effect of polyamine analogues without or with MDL72527 on hepatic SSAT (FIG. 9A) and PAO (FIG. 9B) activities in SSAT transgenic rats. The rats were treated with the drugs as described in the legend for FIGS. 8A–8D. There were three to four animals in each group.
# The production of transgenic Wistar rats (UKUR30) and mice (UKU181) harboring metallothionein-SSAT fusion gene (Suppola, S., Pietilä, M., Parkkinen, J. J., Korhonen, V. P., Alhonen, L., Halmekytö, M., Porter, C. W., and Jänne, J. (1999) Biochem. J. 338, 311–316) has been described earlier (Alhonen, L., Parkkinen, J. J., Keinänen, T., Sinervirta, R., Herzig, K. H., and Jänne, J. (2000) Proc. Natl. Acad. Sci. U.S.A. 97, 8290–8295; Lukkarinen, J., Gröhn, O., Sinervirta, R., Järvinen, A., Kauppinen, R. A., Jänne, J., and Alhonen, L. (1997) Stroke 28, 639–645). Partial hepatectomy was carried out according to the original method of Higgins and Anderson (Higgins, G. H., and Anderson, R. M. (1931) Arch. Pathol. 12, 186–202). […]
# PAO activity was measured to verify the effectiveness of MDL72527 treatment and to determine whether the analogues have any effect on its activity. […]
# [2] = test system: SSAT transgenic rats (UKUR30); test: Pancreatic zinc, SSAT activity and polyamine levels in zinc induced pancreatitis treated with MeSpd; type: in vivo; settings: single animals
# Protocol: Transgenic UKUR30 female rats (weighting about 200 g) were used for the experiments. Pancreatitis was initiated with zinc 10 mg/kg treatment. Experiments were separated in five different parts (Exp. 1–5). Animals treated with α-MeSPD received 50 mg/kg i.p at the indicated time point(s). The pooled data from all of the experiment is shown in tables 4 A/B/C/D. First histological signs of pancreatic failure were evident within 6 h after the zinc. Pancreatic failure steadily increases until 24 hours when the first animals died. Within 48 hours mortality was almost 70% in control zinc treated rats. […].
# Tables 4 A/B/C/D present the natural course of zinc induced pancreatitis. Histological scoring along with plasma amylase activity is shown as a measure of severity of pancreatitis. Tissue zinc and polyamine levels and SSAT activity were determined to verify the response of each animal to the treatment. No other data than the number of death animals is shown from deceased animals. Transgenic UKUR30 female rats weighting about 200 grams were used for the experiment. Zinc was injected i.p. 10 mg/kg to initiate acute pancreatitis. Animals treated with MeSpd received one 50 mg/kg dosage i.p. at the indicated time point(s). At indicated time points live animals were sacrificed and pancreas was subjected to further analysis. […] Values for polyamines are expressed as pmoles/mg/wet weight. SSAT pmoles/10 min/mg wet weight.
# [3] = test system: rats with cerulein-induced pancreatitis; test: Cerulein-induced pancreatitis; type: in vivo, rat
# Protocol: FIG. 7 Effect of pancreatic-associated edema by methylspermidine in rats with cerulein-induced pancreatitis. The animals received cerulein 24 h before sacrifice with or without methylspermidine (50 mg/kg) as a single dose 4 h before cerulein. Three to five animals in each group. Me-Spd, methylspermidine. Administration of cerulein induces a non-necrotizing pancreatitis in rodents. Cerulein-induced pancreatitis is characterized by a pronounced increase in plasma/serum amylase activity.
# [4] = test system: rats with arginine-induced pancreatitis; test: Arginine-induced pancreatitis; type: in vivo, rat
# Protocol: FIG. 6 Plasma α-amylase activity in rats with arginine-induced pancreatitis after methylspermidine. The animals received […]-500 mg/kg) 24 h before sacrifice with or without methylspermidine (50 mg/kg) either as a single dose 4 h before arginine or as two doses 20 h and 4 h before arginine. Three to five animals in each group. Arg, Arginine. Me-Spd, methylspermidine. Administration of large quantities of arginine is known to cause acute, necrotizing pancreatitis in rats.
# [5] = Zn 24 h, MeSpd 50 mg/kg i.p. at 3 h/8 h
# [6] = Zn 24 h, MeSpd 50 mg/kg i.p. at 6 h/12 h
# [7] = Zn 24 h, MeSpd 50 mg/kg i.p. at 12 h
# [8] = Zn 48 h, MeSpd 50 mg/kg i.p. at 3 h/8 h
# [9] = Zn 48 h, MeSpd 50 mg/kg i.p. at 4 h/24 h
# [10] = Zn 48 h, MeSpd 50 mg/kg i.p. at 12 h/24 h
smiles,measurement,setting,value
"CC(N)CCNCCCCNCCC(C)N (stereo not drawn) [bis-α-methylspermine, 1,12-dimethylspermine]",hepatic SSAT activity,[1]; analogue 25 mg/kg i.p. twice,significantly increased hepatic SSAT activity
same,hepatic SSAT activity,[1]; analogue combined with MDL72527,further enhanced
"CC(N)CCNCCCCN (stereo not drawn) [α-methylspermidine, 1-methylspermidine]",MeSpd (pancreas),[2]; [5],1943 pmoles/mg/wet weight and 1425 pmoles/mg/wet weight and 907 pmoles/mg/wet weight and 0 pmoles/mg/wet weight
same,N^1AcSpd (pancreas),[2]; [5],54 pmoles/mg/wet weight and 58 pmoles/mg/wet weight and 31 pmoles/mg/wet weight and 0 pmoles/mg/wet weight
same,PU (pancreas),[2]; [5],3231 pmoles/mg/wet weight and 2820 pmoles/mg/wet weight and 2269 pmoles/mg/wet weight and 2159 pmoles/mg/wet weight
same,SPD (pancreas),[2]; [5],1165 pmoles/mg/wet weight and 265 pmoles/mg/wet weight and 119 pmoles/mg/wet weight and 3405 pmoles/mg/wet weight
same,SPM (pancreas),[2]; [5],299 pmoles/mg/wet weight and 128 pmoles/mg/wet weight and 69 pmoles/mg/wet weight and 441 pmoles/mg/wet weight
same,SSAT (pancreas),[2]; [5],50 pmoles/10 min/mg wet weight and 91 pmoles/10 min/mg wet weight and 100 pmoles/10 min/mg wet weight and 18 pmoles/10 min/mg wet weight
same,MeSpd (pancreas),[2]; [6],2268 pmoles/mg/wet weight and 3242 pmoles/mg/wet weight and 3098 pmoles/mg/wet weight and 745 pmoles/mg/wet weight and 798 pmoles/mg/wet weight and 954 pmoles/mg/wet weight and 834 pmoles/mg/wet weight and 1993 pmoles/mg/wet weight and 728 pmoles/mg/wet weight
same,N^1AcSpd (pancreas),[2]; [6],113 pmoles/mg/wet weight and 45 pmoles/mg/wet weight and 43 pmoles/mg/wet weight and 66 pmoles/mg/wet weight and 71 pmoles/mg/wet weight and 98 pmoles/mg/wet weight and 134 pmoles/mg/wet weight and 20 pmoles/mg/wet weight and 59 pmoles/mg/wet weight
same,PU (pancreas),[2]; [6],6768 pmoles/mg/wet weight and 6932 pmoles/mg/wet weight and 4915 pmoles/mg/wet weight and 2335 pmoles/mg/wet weight and 1932 pmoles/mg/wet weight and 2401 pmoles/mg/wet weight and 1911 pmoles/mg/wet weight and 3790 pmoles/mg/wet weight and 1935 pmoles/mg/wet weight
same,SPD (pancreas),[2]; [6],478 pmoles/mg/wet weight and 1114 pmoles/mg/wet weight and 1297 pmoles/mg/wet weight and 108 pmoles/mg/wet weight and 96 pmoles/mg/wet weight and 105 pmoles/mg/wet weight and 84 pmoles/mg/wet weight and 1096 pmoles/mg/wet weight and 100 pmoles/mg/wet weight
same,SPM (pancreas),[2]; [6],213 pmoles/mg/wet weight and 431 pmoles/mg/wet weight and 408 pmoles/mg/wet weight and 41 pmoles/mg/wet weight and 54 pmoles/mg/wet weight (2×) and 50 pmoles/mg/wet weight and 276 pmoles/mg/wet weight and 46 pmoles/mg/wet weight
same,SSAT (pancreas),[2]; [6],1403 pmoles/10 min/mg wet weight and 37 pmoles/10 min/mg wet weight and 40 pmoles/10 min/mg wet weight and 10372 pmoles/10 min/mg wet weight and 3866 pmoles/10 min/mg wet weight and 5823 pmoles/10 min/mg wet weight and 6216 pmoles/10 min/mg wet weight and 1024 pmoles/10 min/mg wet weight and 5748 pmoles/10 min/mg wet weight
same,MeSpd (pancreas),[2]; [7],1113 pmoles/mg/wet weight and 371 pmoles/mg/wet weight and 333 pmoles/mg/wet weight and 334 pmoles/mg/wet weight
same,N^1AcSpd (pancreas),[2]; [7],16 pmoles/mg/wet weight and 57 pmoles/mg/wet weight and 65 pmoles/mg/wet weight and 42 pmoles/mg/wet weight
same,PU (pancreas),[2]; [7],5328 pmoles/mg/wet weight and 3361 pmoles/mg/wet weight and 2782 pmoles/mg/wet weight and 3116 pmoles/mg/wet weight
same,SPD (pancreas),[2]; [7],1360 pmoles/mg/wet weight and 124 pmoles/mg/wet weight and 153 pmoles/mg/wet weight and 126 pmoles/mg/wet weight
same,SPM (pancreas),[2]; [7],479 pmoles/mg/wet weight and 47 pmoles/mg/wet weight and 61 pmoles/mg/wet weight and 45 pmoles/mg/wet weight
same,SSAT (pancreas),[2]; [7],29 pmoles/10 min/mg wet weight and 6855 pmoles/10 min/mg wet weight and 4852 pmoles/10 min/mg wet weight and 6866 pmoles/10 min/mg wet weight
same,MeSpd (pancreas),[2]; [8],646 pmoles/mg/wet weight and 1043 pmoles/mg/wet weight and 768 pmoles/mg/wet weight
same,N^1AcSpd (pancreas),[2]; [8],43 pmoles/mg/wet weight and 21 pmoles/mg/wet weight and 29 pmoles/mg/wet weight
same,PU (pancreas),[2]; [8],1538 pmoles/mg/wet weight and 1268 pmoles/mg/wet weight and 649 pmoles/mg/wet weight
same,SPD (pancreas),[2]; [8],367 pmoles/mg/wet weight and 313 pmoles/mg/wet weight and 148 pmoles/mg/wet weight
same,SPM (pancreas),[2]; [8],119 pmoles/mg/wet weight and 90 pmoles/mg/wet weight and 51 pmoles/mg/wet weight
same,SSAT (pancreas),[2]; [8],92 pmoles/10 min/mg wet weight and 82 pmoles/10 min/mg wet weight and 90 pmoles/10 min/mg wet weight
same,MeSpd (pancreas),[2]; [9],1066 pmoles/mg/wet weight and 2249 pmoles/mg/wet weight and 1415 pmoles/mg/wet weight and 1041 pmoles/mg/wet weight and 1493 pmoles/mg/wet weight
same,N^1AcSpd (pancreas),[2]; [9],0 pmoles/mg/wet weight
same,PU (pancreas),[2]; [9],1522 pmoles/mg/wet weight and 2416 pmoles/mg/wet weight and 1960 pmoles/mg/wet weight and 1744 pmoles/mg/wet weight and 1896 pmoles/mg/wet weight
same,SPD (pancreas),[2]; [9],1344 pmoles/mg/wet weight and 1052 pmoles/mg/wet weight and 1928 pmoles/mg/wet weight and 2533 pmoles/mg/wet weight and 369 pmoles/mg/wet weight
same,SPM (pancreas),[2]; [9],238 pmoles/mg/wet weight and 254 pmoles/mg/wet weight and 339 pmoles/mg/wet weight and 557 pmoles/mg/wet weight and 112 pmoles/mg/wet weight
same,SSAT (pancreas),[2]; [9],10 pmoles/10 min/mg wet weight and 28 pmoles/10 min/mg wet weight and 17 pmoles/10 min/mg wet weight and 8 pmoles/10 min/mg wet weight and 75 pmoles/10 min/mg wet weight
same,MeSpd (pancreas),[2]; [10],452 pmoles/mg/wet weight and 1053 pmoles/mg/wet weight and 560 pmoles/mg/wet weight and 629 pmoles/mg/wet weight
same,N^1AcSpd (pancreas),[2]; [10],70 pmoles/mg/wet weight and 51 pmoles/mg/wet weight and 49 pmoles/mg/wet weight and 42 pmoles/mg/wet weight
same,PU (pancreas),[2]; [10],889 pmoles/mg/wet weight and 7496 pmoles/mg/wet weight and 1078 pmoles/mg/wet weight and 1345 pmoles/mg/wet weight
same,SPD (pancreas),[2]; [10],79 pmoles/mg/wet weight and 1571 pmoles/mg/wet weight and 165 pmoles/mg/wet weight and 456 pmoles/mg/wet weight
same,SPM (pancreas),[2]; [10],35 pmoles/mg/wet weight and 422 pmoles/mg/wet weight and 61 pmoles/mg/wet weight and 141 pmoles/mg/wet weight
same,SSAT (pancreas),[2]; [10],548 pmoles/10 min/mg wet weight and 42 pmoles/10 min/mg wet weight and 4391 pmoles/10 min/mg wet weight and 2001 pmoles/10 min/mg wet weight
same,amylase levels,[3]; cerulein-induced pancreatitis,does not normalize amylase levels
same,pancreatitis-associated edema,"[3]; cerulein, single dose 50 mg/kg",reduces the pancreatitis-associated edema
same,plasma amylase,"[4]; arginine 250–500 mg/kg, single dose 50 mg/kg",significantly reduced the pancreatitis-associated increase in plasma amylase
same,plasma amylase levels,"[4]; arginine 250–500 mg/kg, two repeated doses",fully normalized
same,histopathological changes in the pancreas,[4]; arginine-induced pancreatitis,prevented the histopathological changes
